Data from US20230105108A1, “COMPOUNDS FOR THE TREATMENT OF BACTERIAL INFECTIONS AND POTENTIATION OF ANTIBIOTICS” (GEORGIA STATE UNIVERSITY RESEARCH FOUNDATION, INC., priority 2019, published 2023).
Where two headings read alike, the source gives them in different places.

Key:
E. coli (ATCC 25922) = assay: MIC determination, sensitization fold and FIC index on E. coli; type: cell-based; conditions: for MIC of AB with MD-124: MD-124 concentration 5 μg/ml; for MIC: Escherichia coli
Summary of the method: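 MICs read by OD600 as >90% growth inhibition after two-fold rifampicin dilutions, 5×10^5 CFU/ml E. coli, 24 h, 37 °C, shaken, cation-adjusted Mueller Hinton II broth.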

B. subtilis = assay: MIC determination and sensitization fold on B. subtilis; type: cell-based; conditions: for sensitization fold with 5.5 μg/ml DB2560: B. subtilis towards the antibiotic
[1] = tested on: A. baumannii (ATCC 17978); assay: MIC, sensitization fold and FIC index on A. baumannii; type: cell-based; conditions: for Sensitization fold with 5 μg/ml MD-124: A. baumannii towards the antibiotic
K. pneumoniae (43816) = assay: MIC, sensitization fold and FIC index on K. pneumoniae; type: cell-based; conditions: for Sensitization fold with 5 μg/ml MD-124: K. pneumoniae towards the antibiotic
[2] = tested on: NDM-1 expressing E. coli strain; assay: microbe, parasite or virus in culture; type: cell-based; conditions: for Sensitization fold with 5 μg/ml MD-124: NDM-1 expressing E. coli towards the antibiotic
E. coli [3] = assay: Ex vivo skin burn infection model, wild-type E. coli; conditions: human skin burn, hypromellose gel, 24 hours; 4‰ (w/w) novobiocin, 1.5‰ MD-124
Method: To achieve topical application, compounds were formulated as hypromellose gel. […] After that, skin was loaded with hypromellose gel with different antibiotics and cultured at 37° C. for 24 hours. After 24 hours incubation, the skin sample was homogenized and the supernatants were serially diluted and plated on agar plates, from which bacterial counts on the skin was calculated. […] 1‰ polymyxin B hypromellose gel was used as positive control.

A. baumannii = assay: MIC of rifampicin on A. baumannii with bacterial sensitizer Compound D; type: cell-based; conditions: Acinetobacter baumannii; antibiotic alone; read-out: minimum inhibitory concentration (MIC) on A. baumannii
Method: Bacteria were cultured with the antibiotic at various concentrations in the presence or absence of bacterial sensitizer, Compound D, for 24 hours at 37° C.

MRSA (ATCC 33592) = assay: MIC determination and sensitization fold on MRSA; type: cell-based, methicillin-resistant Staphylococcus aureus; conditions: MRSA towards the antibiotic
[4] = tested on: mcr-1 over-expressing E. coli strains; assay: microbe, parasite or virus in culture; type: cell-based; conditions: for MIC: Escherichia coli
MRSA and E. coli = assay: Composition of mixed MRSA and E. coli under antibiotic pressure; type: cell-based; conditions: trovafloxacin 16 ng/ml
Method: FIG. 11 contains graphs showing that MD-108 can change the composition between MRSA and E. coli (Panel A) or MRSA and B. subtilis (Panel B) when the bacteria strains are under the same antibiotic pressure.
As a proof of concept, the relative ratio of E. coli and MRSA or B. subtilis and MRSA was measured with and without MD-108 (FIGS. 11A and B). […] When supplied with 1.5 μg/ml MD-108 and 8 ng/ml trovafloxacin, the MRSA inhibition was achieved, leaving E. coli as the dominant species (89% of the bacteria population).

E. coli [5] = assay: Lysozyme assay (outer membrane disruption); type: cell-based; conditions: 50 μg/ml lysozyme, 50 μg/ml sensitizer, 10 min
Method: Lysozyme assay to evaluate the disruption of Gram-negative bacteria out membrane by bacterial sensitizers. Lysozyme assay was performed based on literature reported method. E. coli was cultured in Mueller Hinton II cation-adjusted broth for overnight, centrifuged at 3000 g for 10 min, washed with HEPES buffer (pH=7.2) and then centrifuged again to obtain bacteria pallet. The pallet was then gently resuspended in HEPES buffer with 5 mM NaCN to obtain an E. coli suspension with OD600 between 0.8˜1.0. On a 96-well plate, each well was supplied with 100 μl lysozyme solution (100 μg/ml) containing 50 or 100 μg/ml bacterial sensitizers in HEPES buffer. To each well was added 100 μl E. coli suspension. The final concentration of lysozyme was 50 μg/ml. The plate was incubated at room temperature for 10 min and the OD600 was recorded. E. coli was also incubated with bacterial sensitizers in the absence of lysozyme to test if bacterial sensitizers would directly induce bacterial lysis. E. coli that was incubated with lysozyme alone or E. coli without any treatment were also used as negative control.

[6] = tested on: E. coli (lipid A part of LPS); assay: Dansyl-PMBN displacement assay; type: binding; conditions: E. coli with 10 μM Dansyl-PMBN; sensitizer 0 to 200 μM
Method: Panel (C) depicts a Dansyl-PMBN displacement assay. […] The fluorescent intensity of 10 μM Dansyl-PMBN in HEPES buffer was recorded as baseline F0. Fluorescent intensity/%=(F1−Fx)/(F1−F0). […] All results are triplicates.
Dansyl-PMBN displacement assay. Dansyl-PMBN was synthesized according to literature procedure. Dansyl-PMBN was dissolved in H2O to make 500 μM stock. Bacterial sensitizers were dissolved in ethanol to make 10 mM stock solutions. […] The E. coli stock was centrifuged at 3000 g for 10 min, washed with HEPES buffer (pH=7.2) and then centrifuged again to obtain bacteria pallet. The pallet was then gently resuspended in HEPES buffer to obtain a E. coli suspension with OD600 about 0.3. The experiment was performed on 96-well plates. Each well was supplied with 100 μl coli suspension with 10 μM Dansyl-PMBN, then to each well, different concentrations of bacterial sensitizers were added to achieve a final concentration ranging from 0 to 200 μM.
Mg^2+ can bridge between adjacent lipid A and enhance the membrane integrity. […] This phenomenon was also observed on MD-100. The culture medium for E. coli is Muller Hinton Broth (Cation adjusted), which already has at least 0.5 mM Mg^2+, so the “zero concentration point of Mg^2+” in FIG. 4 represents the amount of exogenous Mg^2+, not the total Mg^2+ in the culture medium. […] A fluorescent conjugate of a polymyxin-B derivative (Dansyl-PMBN, Scheme 3), which would show increased fluorescent intensity after binding to the lipid A part of LPS, was used to further probe this issue. In the presence of another component that can also binding to lipid A, Dansyl-PMBN would be replaced, leading to decreased fluorescent intensity.

[7] = E. coli towards the antibiotic, MD-124 5 μg/ml
[8] = A. baumannii, checkerboard assay

Structure (SMILES) | Sensitization fold (E. coli (ATCC 25922); [7]) | MIC of AB with MD-124 (E. coli (ATCC 25922); E. coli) | sensitization fold with 5.5 μg/ml DB2560 (B. subtilis) | Sensitization fold with 5 μg/ml MD-124 [1] | FIC index between MD-124 and antibiotic [1, 8] | MIC of AB with 5 μg/ml MD-124 (K. pneumoniae (43816); K. pneumoniae) | Sensitization fold with 5 μg/ml MD-124 (K. pneumoniae (43816)) | Sensitization fold with 5 μg/ml MD-124 [2] | sensitization fold with 2.7 μg/ml DB2560 (MRSA (ATCC 33592)) | further results
CO[C@@H]1[C@@H](OC(N)=O)[C@@H](O)[C@H](Oc2ccc3c(O)c(NC(=O)c4ccc(O)c(CC=C(C)C)c4)c(=O)oc3c2C)OC1(C)C [Novobiocin, reference compound] | 64 fold | 1.6 mg/L | 4 fold | 32 fold | 0.20 | 6.4 mg/L | 32 fold | 32 fold | – | MIC (E. coli (ATCC 25922); ATCC25922, 24 h, E. coli (wild type), antibiotic alone, read-out: MIC of AB only): 100 mg/L; E. coli growth inhibition / bacterial load vs vehicle group (E. coli [3]): neither 4‰ (w/w) novobiocin nor 1.5‰ MD-124 themselves achieved significant E. coli growth inhibition
CO[C@H]1/C=C/O[C@@]2(C)Oc3c(C)c(O)c4c(O)c(c(/C=N/N5CCN(C)CC5)c(O)c4c3C2=O)NC(=O)/C(C)=C\C=C\[C@H](C)[C@H](O)[C@@H](C)[C@@H](O)[C@@H](C)[C@H](OC(C)=O)[C@@H]1C [Rifampicin] | 516 fold | – | 256 fold | 128 fold | 0.14 | 0.016 mg/L | 252 fold | 516 fold | 32 fold | MIC (A. baumannii): 5 mg/L; fractional inhibitory concentration (FIC) index between MD-124 and antibiotic (E. coli (ATCC 25922); E. coli, checkerboard assay): 0.09; MIC (E. coli (ATCC 25922); ATCC25922, E. coli, with ~10 μg/ml MD-124, read-out: MIC of rifampicin (checkerboard assay)): 0.0006 mg/L; FIC index between DB2560 and antibiotic (B. subtilis; B. subtilis): 0.11; MIC of antibiotic in the presence of 5.5 μg/ml of DB2560 (B. subtilis; B. subtilis): 0.037 mg/L; MIC ([1]; Acinetobacter baumannii, ATCC17978, A. baumannii, checkerboard assay, read-out: MIC of rifampicin with 7 pg/ml of the sensitizer (MD-124)): 0.01 mg/L; FIC index between MD-124 and antibiotic (K. pneumoniae (43816); K. pneumoniae): 0.15; MIC ([2]; Escherichia coli, read-out: MIC of rifampicin with 10 μg/ml MD-124, NDM-1 expressing E. coli): 0.012 mg/L; FIC index between MD-124 and antibiotic ([2]; NDM-1 expressing E. coli): 0.09; MIC ([4]; mcr-1 over-expression E. coli strain (MIC of polymyxin B 30 μg/ml), read-out: MIC of AB only): 5 mg/L; MIC ([4]; read-out: MIC of AB with 5 μg/ml MD-124, mcr-1 over-expression E. coli strain (MIC of polymyxin B 30 μg/ml)): ≤ 0.2 mg/L; MIC ([4]; strain mcr-1 A, read-out: MIC of Rif only): 5 mg/L; MIC ([4]; strain mcr-1 B, read-out: MIC of Rif only): 5 mg/L; FIC index between MD-124 and antibiotic ([4]; mcr-1 expressing E. coli): 0.37; MIC of AB with 5 μg/ml MD-124 ([4]; mcr-1 over-expression E. coli strain (MIC of polymyxin B 30 μg/ml)): 0.16 mg/L; Sensitization fold with 5 μg/ml MD-124 ([4]; mcr-1 over-expression E. coli strain towards the antibiotic): 32 fold
N[C@@H]1[C@H]2CN(c3nc4c(cc3F)c(=O)c(C(=O)O)cn4-c3ccc(F)cc3F)C[C@@H]12 [Trovafloxacin, reference compound] | 32 fold | 0.0015 mg/L | 8 fold | 2 fold | – | – | – | 32 fold | 16 fold | MRSA share of the bacteria population (MRSA and E. coli): 78%
N=C(N)c1ccc(OCCCCCOc2ccc(C(=N)N)cc2)cc1 [pentamidine, reference compound] | – | – | – | – | – | – | – | – | – | Sensitization fold (E. coli (ATCC 25922); E. coli, rifampicin, 20 μg/ml bacterial sensitizer): 4 fold; bacterial lysis by lysozyme in the presence of sensitizer (E. coli [5]): led to bacterial lysis; displacement of Dansyl-PMBN (fluorescent intensity) [6]: able to displace Dansyl-PMBN although not as much as MD-124
